Data from PMC5779714, “Metallochaperone UreG serves as a new target for design of urease inhibitor: A novel strategy for development of antimicrobials” (PLoS Biology, 2018).
Several values for one entry are separate records, joined by “and”; a condition that tells them apart may be missing. Equal values may be shown once. Read-outs that look alike come from different tables or passages of the source.

What was measured:
[1] = system: H. pylori urease; settings: for Normalized urease activity(%): 40 min
From the text: The starting sample with 20% urease activity was used. […] Because zero is not defined on a log scale, the blank values have been entered as 0.1.

[2] = target: UreG (Helicobacter pylori, UniProt Q09066); test: Fluorescence-quenching titration of UreG (Kd); assay type: binding, H. pylori
Method: Using the relation between the emission intensity at 310 nm and molecule-UreG–bound species, as well as one site-binding model, the Kd values were calculated by a logistic regression model referring to a previous report. […] All fluorescence readings were corrected for the dilution effect.

[3] = target: T1, urease (Proteus mirabilis, UniProt P17086+P17087+P17088); assay type: biochemical
T1 construct: endogenous in cells

[4] = target: T2, urease (Pseudomonas aeruginosa, UniProt Q9HUU5+Q9HUU6+Q9HUU8); test: Urease activity of extracted P. aeruginosa urease (in vitro); assay type: biochemical
T2 construct: endogenous in cells

[5] = system: urease
[6] = system: urease; remark: listed apart in the source
[7] = system: urease; remark: listed apart in the source
[8] = system: urease; remark: listed apart in the source
[9] = system: AGS cells exposed to H. pylori; test: Cell infection model: AGS cells exposed to H. pylori pre-cultured with inhibitors; assay type: cell-based, human; settings: H. pylori pre-cultured with 10 μM inhibitor 24 h; MOI 20; 24 h infection; Hp alone 28.8%
[10] = system: AGS cells with H. pylori infection; test: AGS cells with H. pylori infection, inhibitors administrated to the AGS cells (S20 Fig); assay type: cell-based, human; settings: 10 μM administrated to AGS cells with H. pylori infection
From the text: As expected, low viability of AGS with the supplement of cmpd4 and cmpd8 was observed due to the toxicity of small compounds to mammalian cells. […] (PNG) Click here for additional data file.

[11] = target: H. pylori urease (Helicobacter pylori, UniProt P14916+P69996); assay type: biochemical; set-up: endogenous in cells; host or cells: H. pylori strain 26695 or a clinical isolate
H. pylori urease (Helicobacter pylori, UniProt P14916+P69996), sequence (P69996 whole entry): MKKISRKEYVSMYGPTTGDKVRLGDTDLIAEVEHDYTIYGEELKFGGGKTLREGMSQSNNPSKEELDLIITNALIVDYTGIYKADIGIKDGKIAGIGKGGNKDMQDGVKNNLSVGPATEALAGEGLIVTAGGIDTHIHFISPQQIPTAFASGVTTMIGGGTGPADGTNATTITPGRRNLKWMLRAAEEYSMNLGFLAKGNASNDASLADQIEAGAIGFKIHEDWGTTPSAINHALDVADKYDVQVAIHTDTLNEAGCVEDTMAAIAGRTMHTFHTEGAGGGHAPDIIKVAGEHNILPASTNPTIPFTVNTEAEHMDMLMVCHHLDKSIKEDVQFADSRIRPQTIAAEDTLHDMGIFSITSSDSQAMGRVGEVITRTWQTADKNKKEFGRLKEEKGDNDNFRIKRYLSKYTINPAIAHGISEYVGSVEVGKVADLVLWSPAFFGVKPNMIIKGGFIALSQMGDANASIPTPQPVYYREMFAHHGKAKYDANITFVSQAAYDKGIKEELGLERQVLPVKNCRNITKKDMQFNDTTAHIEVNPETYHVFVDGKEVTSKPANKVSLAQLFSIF
H. pylori urease (Helicobacter pylori, UniProt P14916+P69996), sequence (P14916 whole entry): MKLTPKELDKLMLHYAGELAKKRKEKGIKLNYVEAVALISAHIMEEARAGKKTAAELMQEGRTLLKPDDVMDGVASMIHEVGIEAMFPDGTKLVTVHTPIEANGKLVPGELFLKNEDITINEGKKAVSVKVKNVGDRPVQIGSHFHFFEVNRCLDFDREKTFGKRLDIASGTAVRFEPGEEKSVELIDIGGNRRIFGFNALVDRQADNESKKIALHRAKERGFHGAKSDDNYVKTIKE

UreG, sequence (Q09066 whole entry): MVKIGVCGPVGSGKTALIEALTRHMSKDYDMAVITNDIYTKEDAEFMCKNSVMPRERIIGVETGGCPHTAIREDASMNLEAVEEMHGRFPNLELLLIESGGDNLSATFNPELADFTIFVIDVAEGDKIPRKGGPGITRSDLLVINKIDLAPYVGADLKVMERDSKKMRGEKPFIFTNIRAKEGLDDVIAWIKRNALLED
T2 sequence (Q9HUU6 whole entry): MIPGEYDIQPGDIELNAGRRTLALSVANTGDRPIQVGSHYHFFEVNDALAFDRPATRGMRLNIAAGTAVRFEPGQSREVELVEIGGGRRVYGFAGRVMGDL
T2 sequence (Q9HUU5 whole entry): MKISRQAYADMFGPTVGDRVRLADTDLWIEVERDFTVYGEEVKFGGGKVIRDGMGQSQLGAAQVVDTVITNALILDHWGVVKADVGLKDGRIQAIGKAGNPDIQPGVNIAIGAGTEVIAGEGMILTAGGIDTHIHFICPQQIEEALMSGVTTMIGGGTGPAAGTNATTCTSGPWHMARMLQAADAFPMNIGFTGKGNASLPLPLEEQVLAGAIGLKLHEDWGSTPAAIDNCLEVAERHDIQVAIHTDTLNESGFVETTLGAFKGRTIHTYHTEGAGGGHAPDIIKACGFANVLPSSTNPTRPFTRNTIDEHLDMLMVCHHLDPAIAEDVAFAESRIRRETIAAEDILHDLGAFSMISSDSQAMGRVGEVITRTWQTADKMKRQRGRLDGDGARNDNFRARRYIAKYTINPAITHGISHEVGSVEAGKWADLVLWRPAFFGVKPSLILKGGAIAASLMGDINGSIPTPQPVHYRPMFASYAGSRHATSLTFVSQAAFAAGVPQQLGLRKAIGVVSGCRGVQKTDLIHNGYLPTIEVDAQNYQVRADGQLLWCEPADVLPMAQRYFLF
T2 sequence (Q9HUU8 whole entry): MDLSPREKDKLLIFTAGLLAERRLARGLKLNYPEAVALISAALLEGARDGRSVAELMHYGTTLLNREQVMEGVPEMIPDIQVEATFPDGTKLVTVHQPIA
T1 sequence (P17087 whole entry): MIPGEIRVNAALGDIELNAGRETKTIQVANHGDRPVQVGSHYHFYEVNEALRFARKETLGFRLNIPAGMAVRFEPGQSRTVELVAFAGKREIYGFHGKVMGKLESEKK
T1 sequence (P17088 whole entry): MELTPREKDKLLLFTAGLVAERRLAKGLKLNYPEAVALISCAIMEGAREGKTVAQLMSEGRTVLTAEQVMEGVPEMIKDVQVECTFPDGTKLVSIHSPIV
T1 sequence (P17086 whole entry): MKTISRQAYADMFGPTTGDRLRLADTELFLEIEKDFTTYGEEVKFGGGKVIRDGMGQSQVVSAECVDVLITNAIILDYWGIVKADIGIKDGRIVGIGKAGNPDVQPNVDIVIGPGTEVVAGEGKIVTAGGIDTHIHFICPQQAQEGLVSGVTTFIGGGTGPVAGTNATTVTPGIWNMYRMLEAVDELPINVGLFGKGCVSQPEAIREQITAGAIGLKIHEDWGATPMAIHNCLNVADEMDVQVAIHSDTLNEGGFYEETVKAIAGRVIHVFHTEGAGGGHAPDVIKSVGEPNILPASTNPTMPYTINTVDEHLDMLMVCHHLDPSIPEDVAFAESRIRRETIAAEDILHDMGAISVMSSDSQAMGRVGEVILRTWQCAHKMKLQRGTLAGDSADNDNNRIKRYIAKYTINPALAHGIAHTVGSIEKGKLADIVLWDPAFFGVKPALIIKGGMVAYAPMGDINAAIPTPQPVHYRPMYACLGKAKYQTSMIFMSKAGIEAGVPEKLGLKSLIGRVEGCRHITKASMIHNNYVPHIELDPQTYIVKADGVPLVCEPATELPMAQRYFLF

SMILES: [Ni+2] [Ni]
- Normalized urease activity(%) ([1]; supplement 0.05 (head prints CBS(μM )), starting sample 20% activity): 19.0%
- Normalized urease activity(%) ([1]; supplement 0.1 (head prints CBS(μM ))): 18.6%
- Normalized urease activity(%) ([1]; supplement 0.2 (head prints CBS(μM ))): 18.3%
- Normalized urease activity(%) ([1]; supplement 0.4 (head prints CBS(μM ))): 17.5%
- restoration of urease activity ([1]; supplemented to CBS-treated bacterial cell lysate): failed to restore the urease activity completely

SMILES: Nc1nc2c(ncn2[C@@H]2O[C@H](COP(=O)(O)OP(=O)(O)OP(=O)(O)O)[C@@H](O)[C@H]2O)c(=O)[nH]1 [GTP, guanosine-5'-triphosphate, reference compound]
- Kd [2]: ~65 µM
- fluorescence intensity (a.u.) ([2]; log(ligand[μM]) 0): 3320 a.u.
- fluorescence intensity (a.u.) ([2]; log(ligand[μM]) 0.30103): 3210 a.u.
- fluorescence intensity (a.u.) ([2]; log(ligand[μM]) 0.60206): 2994.67 a.u.
- fluorescence intensity (a.u.) ([2]; log(ligand[μM]) 0.90309): 2943.33 a.u.
- fluorescence intensity (a.u.) ([2]; log(ligand[μM]) 1.20412): 2860.67 a.u.
- fluorescence intensity (a.u.) ([2]; log(ligand[μM]) 1.50515): 2655 a.u.
- fluorescence intensity (a.u.) ([2]; log(ligand[μM]) 1.80618): 2320.33 a.u.
- fluorescence intensity (a.u.) ([2]; log(ligand[μM]) 2.10721): 1866.33 a.u.
- fluorescence intensity (a.u.) ([2]; log(ligand[μM]) -1.30103): 3394.33 a.u.

SMILES: CC(=O)NO [AHA, acetohydroxamic acid]
- Normalized urease activity(%) ([3]; log(AHA[μM]) 1.29073): 83.9311%
- Normalized urease activity(%) ([3]; log(AHA[μM]) 1.59176): 78.3381%
- Normalized urease activity(%) ([3]; log(AHA[μM]) 1.89279): 61.9141%
- Normalized urease activity(%) ([3]; log(AHA[μM]) 2.19382): 45.934%
- Normalized urease activity(%) ([3]; log(AHA[μM]) 2.49485): 31.2855%
- Normalized urease activity(%) ([3]; log(AHA[μM]) 2.79588): 25.6037%
- Normalized urease activity(%) ([3]; log(AHA[μM]) 3.09691): 17.6136%
- Normalized urease activity(%) ([3]; log(AHA[μM]) 3.39794): 16.1932%
- Normalized urease activity(%) ([3]; log(AHA[μM]) 3.69897): 12.3757%
- Normalized urease activity(%) ([3]; log(AHA[μM]) 4): 7.315%
- Normalized urease activity(%) ([4]; log(AHA[μM]) 1.79588): 78.186%
- Normalized urease activity(%) ([4]; log(AHA[μM]) 2.09691): 95.4076%
- Normalized urease activity(%) ([4]; log(AHA[μM]) 2.39794): 91.1022%
- Normalized urease activity(%) ([4]; log(AHA[μM]) 2.69897): 92.2503%
- Normalized urease activity(%) ([4]; log(AHA[μM]) 3): 91.3892%
- Normalized urease activity(%) ([4]; log(AHA[μM]) 3.30103): 81.0563%
- Normalized urease activity(%) ([4]; log(AHA[μM]) 3.60206): 50.3444%
- Normalized urease activity(%) ([4]; log(AHA[μM]) 3.90309): 18.7715%
- Normalized urease activity(%) ([4]; log(AHA[μM]) 4.20412): 5.568%
- Normalized urease activity(%) ([4]; log(AHA[μM]) 4.50515): 3.846%
- Normalized urease activity(%) ([5]; log(AHA[μM]) 1.39794): 85.3556%
- Normalized urease activity(%) ([5]; log(AHA[μM]) 2.09691): 97.9079%
- Normalized urease activity(%) ([5]; log(AHA[μM]) 2.39794): 94.4212%
- Normalized urease activity(%) ([5]; log(AHA[μM]) 2.69897): 97.2106%
- Normalized urease activity(%) ([5]; log(AHA[μM]) 3): 105.579%
- Normalized urease activity(%) ([5]; log(AHA[μM]) 3.30103): 100%
- Normalized urease activity(%) ([5]; log(AHA[μM]) 3.60206): 74.198%
- Normalized urease activity(%) ([5]; log(AHA[μM]) 3.90309): 38.6332%
- Normalized urease activity(%) ([5]; log(AHA[μM]) 4.20412): 16.318%
- Normalized urease activity(%) ([5]; log(AHA[μM]) 4.50515): 9.344%
- Normalized urease activity(%) ([6]; log(AHA[μM]) 1.79588): 92.5521%
- Normalized urease activity(%) ([6]; log(AHA[μM]) 2.09691): 93.0486%
- Normalized urease activity(%) ([6]; log(AHA[μM]) 2.39794): 89.0764%
- Normalized urease activity(%) ([6]; log(AHA[μM]) 2.69897): 86.0973%
- Normalized urease activity(%) ([6]; log(AHA[μM]) 3): 82.6216%
- Normalized urease activity(%) ([6]; log(AHA[μM]) 3.30103): 72.6911%
- Normalized urease activity(%) ([6]; log(AHA[μM]) 3.60206): 51.3406%
- Normalized urease activity(%) ([6]; log(AHA[μM]) 3.90309): 15.0943%
- Normalized urease activity(%) ([6]; log(AHA[μM]) 4.20412): 3.674%
- Normalized urease activity(%) ([6]; log(AHA[μM]) 4.50515): 1.688%
- Normalized urease activity(%) ([7]; log(AHA[μM]) 1.79588): 92.1939%
- Normalized urease activity(%) ([7]; log(AHA[μM]) 2.09691): 91.7831%
- Normalized urease activity(%) ([7]; log(AHA[μM]) 2.39794): 89.7288%
- Normalized urease activity(%) ([7]; log(AHA[μM]) 2.69897): 88.9071%
- Normalized urease activity(%) ([7]; log(AHA[μM]) 3): 90.1397%
- Normalized urease activity(%) ([7]; log(AHA[μM]) 3.30103): 80.6902%
- Normalized urease activity(%) ([7]; log(AHA[μM]) 3.60206): 55.6286%
- Normalized urease activity(%) ([7]; log(AHA[μM]) 3.90309): 27.691%
- Normalized urease activity(%) ([7]; log(AHA[μM]) 4.20412): 14.1331%
- Normalized urease activity(%) ([7]; log(AHA[μM]) 4.50515): 10.8463%
- Normalized urease activity(%) ([8]; log(AHA[μM]) 1.79588): 82.0618%
- Normalized urease activity(%) ([8]; log(AHA[μM]) 2.09691): 76.8393%
- Normalized urease activity(%) ([8]; log(AHA[μM]) 2.39794): 67.9837%
- Normalized urease activity(%) ([8]; log(AHA[μM]) 2.69897): 58.901%
- Normalized urease activity(%) ([8]; log(AHA[μM]) 3): 52.7702%
- Normalized urease activity(%) ([8]; log(AHA[μM]) 3.30103): 45.277%
- Normalized urease activity(%) ([8]; log(AHA[μM]) 3.60206): 27.5659%
- Normalized urease activity(%) ([8]; log(AHA[μM]) 3.90309): 11.6712%
- Normalized urease activity(%) ([8]; log(AHA[μM]) 4.20412): 3.951%
- Normalized urease activity(%) ([8]; log(AHA[μM]) 4.50515): 2.589%
- Normalized cell survival (%) [9]: 40.5% ± 8.2% and 40.5405%
- Ammonia in medium [10]: 2.273 mM
- Normalized cell survival (%) [10]: 14.4144%
- IC50 ([11]; AHA incubated with extracted urease, ± SD): 1320 ± 291 µM
- Normalized urease activity(%) (AHA) ([11]; AHA log[μM] 1.89279): 109.4% and 109.395%
- Normalized urease activity(%) (AHA) ([11]; AHA log[μM] 2.19382): 96.0% and 96.0334%
- Normalized urease activity(%) (AHA) ([11]; AHA log[μM] 2.49485): 91.9% and 91.858%
- Normalized urease activity(%) (AHA) ([11]; AHA log[μM] 2.79588): 93.3% and 93.3194%
- Normalized urease activity(%) (AHA) ([11]; AHA log[μM] 3.09691): 51.1% and 51.1482%
- Normalized urease activity(%) (AHA) ([11]; AHA log[μM] 3.39794): 20.5% and 20.4593%
- Normalized urease activity(%) (AHA) ([11]; AHA log[μM] 3.69897): 2.7% and 2.714%
- Normalized urease activity(%) (AHA) ([11]; AHA log[μM] 4): 1.3% and 1.253%
- Normalized urease activity(%) (AHA) ([11]; AHA log[μM] 4.30103): 1.3% and 1.253%
